Data on 16 compounds can be found in publication PMC3723537, “Structural Basis for Native Agonist and Synthetic Inhibitor Recognition by the Pseudomonas aeruginosa Quorum Sensing Regulator PqsR (MvfR)” (PLoS Pathogens, 2013).

Like-named read-outs stand apart in the source and are kept apart here.

For one data set, the system named is AQ biosynthesis. Also on record: method as in PMID 17941706. As to conditions: cited from earlier work.
Data set [1] addresses T1, PqsR (Pseudomonas aeruginosa, UniProt Q9I4X0).
T1 sequence (Q9I4X0 1-332): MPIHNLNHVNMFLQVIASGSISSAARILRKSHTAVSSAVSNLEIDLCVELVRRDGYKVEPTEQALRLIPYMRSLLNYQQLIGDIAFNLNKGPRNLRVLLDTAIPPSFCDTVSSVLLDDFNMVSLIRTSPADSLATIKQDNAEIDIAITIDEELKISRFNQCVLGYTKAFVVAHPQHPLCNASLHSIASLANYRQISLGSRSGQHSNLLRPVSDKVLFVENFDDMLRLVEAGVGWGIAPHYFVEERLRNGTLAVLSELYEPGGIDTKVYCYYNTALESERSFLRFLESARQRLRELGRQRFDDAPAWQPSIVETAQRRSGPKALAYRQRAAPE
As to conditions: cited from earlier work.

A further data set addresses PqsR Leu207Glu (Pseudomonas aeruginosa, UniProt Q9I4X0, L207E). Briefly: Response of PqsR-6His ligand binding site variants to PQS and HHQ, pqsA'-lux in ΔpqsA ΔpqsH ΔpqsR strain. The class given is cell-based. As to conditions: Leu207Glu mutation; co-inducer 40 µM.
In data set [2] the target is T1, PqsR. Briefly: cell-based. Set-up: assayed for their agonist and antagonist activities in a whole P. aeruginosa bacterial cell assay; endogenous in cells; host or cells: P. aeruginosa PAO1 wild type, ΔpqsA or ΔpqsAH strains carrying a chromosomal (mini)CTX::pqsA'-lux fusion. As to conditions: for EC50: Figure 2 (AQs), P. aeruginosa ΔpqsA CTX::pqsA'-lux strain, read-out: Agonist EC50 ±SD.

The target of data set [3] is T1, PqsR. Nature of the data set: cell-based. Also on record: assayed for their agonist and antagonist activities in a whole P. aeruginosa bacterial cell assay; endogenous in cells; host or cells: P. aeruginosa PAO1 wild type, ΔpqsA or ΔpqsAH strains carrying a chromosomal (mini)CTX::pqsA'-lux fusion. As to conditions: for EC50: Figure 2 (AQs), P. aeruginosa ΔpqsAH CTX::pqsA'-lux strain, read-out: Agonist EC50 ±SD.

The target of data set [4] is T1, PqsR. Set-up: assayed for their agonist and antagonist activities in a whole P. aeruginosa bacterial cell assay; endogenous in cells; host or cells: P. aeruginosa PAO1 wild type, ΔpqsA or ΔpqsAH strains carrying a chromosomal (mini)CTX::pqsA'-lux fusion; method as in PMID 17922753. As to conditions: cited from earlier work; for EC50 for PqsR-dependent activation of pqsA: whole P. aeruginosa cell assays; for Activation of PqsR (in words): dependence on alkyl chain length.

Data set [5] has as its target T1, PqsR. Set-up: assayed for their agonist and antagonist activities in a whole P. aeruginosa bacterial cell assay; endogenous in cells; host or cells: P. aeruginosa PAO1 wild type, ΔpqsA or ΔpqsAH strains carrying a chromosomal (mini)CTX::pqsA'-lux fusion; method as in Xiao et al. [21]. As to conditions: different P. aeruginosa strain and reporter assay; ref Xiao et al. [21]; cited from earlier work.

Data set [6] deals with T1, PqsR. Briefly: cell-based. Also on record: assayed for their agonist and antagonist activities in a whole P. aeruginosa bacterial cell assay; endogenous in cells; host or cells: P. aeruginosa PAO1 wild type, ΔpqsA or ΔpqsAH strains carrying a chromosomal (mini)CTX::pqsA'-lux fusion.
In another data set the test system is lecA. The class given is cell-based. As to conditions: P. aeruginosa PAO1, compared with control.
A further data set concerns phzA1 promoter. The class given is cell-based. As to conditions: 12.5 µM; data not shown.
Data set [7] concerns P. aeruginosa PAO1. Nature of the data set: Pyocyanin production, quantified spectrophotometrically. The class given is cell-based, Pseudomonas aeruginosa. As to conditions: PAO1 cultures, 50 or 100 µM. The protocol: (§1) The impact of 3-NH2-7Cl-C9-QZN on (a) AQ production was assayed by LC MS/MS after extracting bacterial cultures with acidified ethyl acetate; (b) pyocyanin was quantified spectrophotometrically and (c) biofilm development was examined using a Bioflux 200 microfluidics device (Fluxion Biosciences; in conjunction with GFP-labelled P. aeruginosa strains, [53]). All assays were performed in triplicate at least twice.

In data set [8] the test system is P. aeruginosa PAO1. Nature of the data set: AQ production by LC-MS/MS of culture extracts. The class given is cell-based, Pseudomonas aeruginosa. As to conditions: PAO1 grown with 200 µM; semi-quantitative. How it is done: as §1
Data set [9] has as its system P. aeruginosa. The class given is cell-based. As to conditions: GFP-tagged wild type, flow conditions.
In data set [10] the target is T1, PqsR. The class given is cell-based. Also on record: assayed for their agonist and antagonist activities in a whole P. aeruginosa bacterial cell assay; endogenous in cells; host or cells: P. aeruginosa PAO1 wild type, ΔpqsA or ΔpqsAH strains carrying a chromosomal (mini)CTX::pqsA'-lux fusion. As to conditions: 100 µM QZN; ΔpqsA mutant.
In data set [11] the test system is P. aeruginosa. Briefly: Bacterial growth in the reporter assays. The class given is cell-based, Pseudomonas aeruginosa. The protocol: The impact of the AQs and QZNs on PqsR-dependent gene expression in P. aeruginosa was evaluated using lux-based pqsA, lecA and phzA1 promoter fusions (Table S1) in 96-well microtiter plates as described before,[23]. Bioluminescence and bacterial growth were quantified using a combined luminometer-spectrometer (Tecan GENios Pro). Where required, AQs or QZNs were added to reporter strains and EC50 or IC50 values were extracted from the sigmoidal dose–response curves obtained using Prism2 (Graphpad, San Diego, USA).
(Reporter assays use an easily measured gene product as a stand-in for the process of interest.)

For data set [12] the following is noted: MeOH stock at a workable concentration.
Setting [13] is: Figure 6 (QZNs), P. aeruginosa wild type strain with miniCTX::pqsA'-lux fusion, read-out: Antagonist IC50±SD.

In the case of `Nc1cc(Cl)ccc1C(=O)O` [4-CABA, 2-amino-4-chorobenzoic acid], in the data set on AQ biosynthesis, the “Concentrations required to inhibit AQ production” value is “millimolar range”.

In the case of `CCCCCCCc1cc(=O)c2ccc(C(F)(F)F)cc2[nH]1` [7-CF3-substituted HHQ], the “Agonist activity relative to HHQ” value at PqsR [1] is listed as “about 50%”.

For orientation: EC50 means the concentration giving half of the maximal effect. Consider `CCCCCCCc1[nH]c2ccccc2c(=O)c1O` [compound 1, 2-heptyl-3-hydroxy-4(1H)-quinolone], for which the “Response, % of pqsA promoter activity with respect to strain expressing PqsR-6His” value at PqsR Leu207Glu was 39%. For the same compound, the EC50 at PqsR [2] is 1.9 µM; on PqsR [3], 3.8 ± 1.6 µM. In addition, on PqsR [3] (P. aeruginosa ΔpqsA ΔpqsH double mutant), the “Induction of the pqsA promoter compared with HHQ” value is given as around 3 fold. Also, the “EC50 for PqsR-dependent activation of pqsA” value on PqsR [4] was “low micromolar range”. Also, the “Induction compared with HHQ” value on PqsR [5] was 100 fold.

With `CCCCCCCc1cc(O)c2ccccc2n1` [compound 2, 2-heptyl-4-hydroxyquinoline], the “Response, % of pqsA promoter activity with respect to strain expressing PqsR-6His” value at PqsR Leu207Glu is 5%. In addition, the results for the concentration for a half-maximal effect (EC50) on PqsR [2] and on PqsR [3] were 0.8 ± 0.3 µM and 16.4 ± 2.6 µM, respectively. Moreover, the “EC50 for PqsR-dependent activation of pqsA” value at PqsR [4] was “low micromolar range”.

Regarding `CCCCCCCCCc1cc(O)c2ccccc2n1` [compound 3, 2-nonyl-4-hydroxyquinoline], the EC50 on PqsR [2] turned out to be 0.4 ± 0.1 µM; on PqsR [3] it was 2.5 ± 1.5 µM. At PqsR [4], the “Activation of PqsR (in words)” value is on record as “highly active”.

Consider `CCCCCCCCCc1[nH]c2ccccc2c(=O)c1O` [compound 4, 2-nonyl-3-hydroxy-4(1H)-quinolone], for which the EC50 is 1.1 ± 0.5 µM on PqsR [2] and 9.1 ± 11.2 µM on PqsR [3]. The “Activation of PqsR (in words)” value on PqsR [4] is given as “highly active”.

As a reminder, the IC50 is the midpoint of a concentration-inhibition curve. For the compound `CCCCCCCCCCCc1nc2ccccc2c(=O)n1N` [compound 21], the “Agonist activity on PqsR (in words)” value at PqsR [2] (pqsA'-lux reporter) is “None of these compounds were agonists”. In addition, the IC50 on PqsR [6] (setting [13]) amounted to 210 ± 77 µM.

Regarding `CCCCCCCCCc1nc2cc(Cl)ccc2c(=O)n1N` [compound 23], in the data set with lecA, the “Expression of lecA” value is reported as “reduced”. In addition, in the data set on phzA1 promoter, the “Reduction of phzA1 promoter activity” value is recorded as around 50%. The Pyocyanin levels entry with P. aeruginosa PAO1 [7] is “substantially reduced”. Besides, the “Production of HHQ, NHQ, their N-oxides and PQS” value with P. aeruginosa PAO1 [8] is “reduced to very low levels”. Besides, the Biofilm development result with P. aeruginosa [9] is recorded as “reduced surface area coverage”. Also, the IC50 on PqsR [6] amounted to 5 ± 1.6 µM. Also, the “PQS concentration that competitively overcomes QZN-mediated PqsR inhibition” value at PqsR [10] is reported as “above 25 µM”.

Broadly, the melting point is the temperature, or range, at which the solid turns liquid. Consider `CCCCCCCCCc1nc2ccccc2c(=O)n1CCN` [compound 35], for which the melting point was in the range of 77 to 81 °C. Further, in the data set with P. aeruginosa [11], the Growth inhibition result was “exhibited growth inhibition”. For the same compound, the “Antagonist activity on PqsR (in words)” value on PqsR [6] (pqsA'-lux reporter) was “inactive or weak antagonists”.

Consider `CCCCCCCCCc1nc2ccc(Cl)cc2c(=O)n1CCN` [compound 36], for which the melting point was in the range of 72 to 74 °C. The Growth inhibition result in the data set with P. aeruginosa [11] is reported as “exhibited growth inhibition”.

In turn, `CCCCCCCCCc1nc2cc(Cl)ccc2c(=O)n1CCN` [compound 37] yielded a melting point of 69 to 72 °C. For the same compound, the Growth inhibition result in the data set with P. aeruginosa [11] is on record as “exhibited growth inhibition”.

In turn, `CCCCCCCCCc1nc2cc(Cl)ccc2c(=O)n1CCCN` [compound 38] had a melting point of 82 to 95 °C. Besides, the Growth inhibition entry in the data set with P. aeruginosa [11] is recorded as “exhibited growth inhibition”.

Regarding `NCCn1c(CCCc2ccccc2)nc2cc(Cl)ccc2c1=O` [compound 39], in the data set with P. aeruginosa [11], the Growth inhibition entry is “exhibited growth inhibition”. In addition, the IC50 at PqsR [6] (setting [13]) was 79.2 ± 2.7 µM.

Turning to `Nn1c(CCc2c[nH]c3ccccc23)nc2cc(Cl)ccc2c1=O` [compound 43], in [12], the “Solubility (in words)” value is “did not dissolve in MeOH at a workable concentration”.

Take `Nn1c(Cc2ccc(-c3ccccc3)cc2)nc2cc(Cl)ccc2c1=O` [compound 44]: in data set [12], the “Solubility (in words)” value is on record as “did not dissolve in MeOH at a workable concentration”.

For the compound `Nn1c(CCCC2CCCCC2)nc2ccccc2c1=O` [compound 46], the “Solubility (in words)” value in data set [12] is given as “barely soluble”.
